The source of these data is article PMC3369275 (Tetrahedron, 2012).

For one series, the target named is NF-κB (p65) (Homo sapiens, UniProt Q04206). Nature of the series: Enzyme-based ELISA NF-κB p65 inhibition assay. In kind it is biochemical. The settings on record: for IC50: read-out: NF-κB p65 inhibition IC50, ELISA, rocaglamide positive control; for NF-κB (p65) inhibitory activity (result in words): inactive = IC50 > 10 µM.
The test system of series [1] is HT-29 human colon cancer cell line.
The subject of series [2] is panel of human cancer cell lines. The following applies: reported previously; cited from earlier work.

NF-κB (p65), sequence (Q04206 whole entry): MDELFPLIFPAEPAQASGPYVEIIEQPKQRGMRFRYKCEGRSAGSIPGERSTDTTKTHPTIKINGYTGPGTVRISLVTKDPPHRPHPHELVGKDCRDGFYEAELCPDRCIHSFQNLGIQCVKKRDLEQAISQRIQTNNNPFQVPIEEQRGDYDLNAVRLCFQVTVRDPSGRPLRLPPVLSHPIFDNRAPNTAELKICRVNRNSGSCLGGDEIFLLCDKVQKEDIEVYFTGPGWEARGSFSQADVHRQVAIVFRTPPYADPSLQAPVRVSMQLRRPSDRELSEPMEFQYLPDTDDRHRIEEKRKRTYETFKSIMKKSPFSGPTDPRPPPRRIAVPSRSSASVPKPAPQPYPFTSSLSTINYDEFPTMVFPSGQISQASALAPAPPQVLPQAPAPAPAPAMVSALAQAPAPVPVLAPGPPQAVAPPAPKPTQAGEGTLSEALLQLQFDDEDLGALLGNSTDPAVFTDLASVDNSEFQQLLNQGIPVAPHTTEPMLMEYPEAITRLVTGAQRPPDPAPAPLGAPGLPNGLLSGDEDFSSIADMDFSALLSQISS

4,5-dihydrolychnopholide [Compound 13]: on NF-κB (p65), the IC50 is greater than 10 µM.

With 15-deoxygoyazensolide [Compound 10], the “NF-κB (p65) inhibitory activity (result in words)” value (shortened to “NF-κB (p65) inhibitory activity”) at NF-κB (p65) is “active”. Further, the IC50 at NF-κB (p65) turned out to be 3.2 µM; in series [1], 0.26 µM.

Turning to `C=C1C(=O)OC2CC(C)CCC(=O)C(C)(OC(C)=O)CC(OC(=O)C(C)=CC)C12` [Compound 3, (4S,6R,7S,8S,10R)-1-oxo-8-angeloyloxy-10-acetoxygermacra-11(13)-en-6,12-olide], the 50% inhibitory concentration (IC50) on NF-κB (p65) is greater than 10 µM; in series [1] it was 3 µM.

Consider `C=C1C(=O)O[C@@H]2C/C(C)=C\CC(=O)[C@](C)(OC(C)=O)C[C@H](OC(=O)/C(C)=C\C)[C@@H]12` [Compound 4, (6R,7S,8S,10R)-1-oxo-8-angeloyloxy-10-acetoxygermacra-3(4),11(13)-dien-6,12-olide], for which, at NF-κB (p65), the IC50 was greater than 10 µM.

Consider `C=C1C(=O)OC2CC(C)C(OC)CC(=O)C(C)(OC(C)=O)CC(OC(=O)C(C)=CC)C12` [Compound 5, (3R,4R,6R,7S,8S,10R)-1-oxo-3-methoxy-8-angeloyloxy-10-acetoxygermacra-11(13)-en-6,12-olide], for which, on NF-κB (p65), the “NF-κB (p65) inhibitory activity” value was “active” and the 50% inhibitory concentration (IC50) was 2.1 µM.

`C=C1C(=O)OC2CC(C)C(OC)CC(=O)C(C)(O)CC(OC(=O)C(C)=CC)C12` [Compound 6, (3R,4R,6R,7S,8S,10R)-1-oxo-3-methoxy-8-angeloyloxy-10-hydroxygermacra-11(13)-en-6,12-olide]: the IC50 at NF-κB (p65) is greater than 10 µM.

Turning to `C=C1C(=O)O[C@@H]2C[C@@H](C)/C=C\C(=O)[C@](C)(OC(C)=O)C[C@H](OC(=O)/C(C)=C\C)[C@@H]12` [Compound 7, ereglomerulide], the IC50 on NF-κB (p65) is greater than 10 µM.

Turning to `C=C(C)C(=O)O[C@H]1C[C@@]2(C)OC(=CC2=O)/C(CO)=C\[C@H]2OC(=O)C(=C)[C@H]12` [Compound 8, goyazensolide], at NF-κB (p65), the “NF-κB (p65) inhibitory activity” value is “active” and the IC50 is 3.8 µM. For the same compound, the “Cytotoxicity toward a panel of human cancer cell lines (result in words)” value (from here on “Cytotoxicity toward a panel”) in series [2] is recorded as “exhibit cytotoxicity”.

For `C=C1C(=O)O[C@@H]2/C=C(/C)C3=CC(=O)[C@@](C)(C[C@H](OC(=O)/C(C)=C\C)[C@@H]12)O3` [Compound 12, lychnopholide], at NF-κB (p65), the “NF-κB (p65) inhibitory activity” value is “active” and the 50% inhibitory concentration (IC50) was determined as 2.9 µM. Moreover, in series [2], the “Cytotoxicity toward a panel” value is given as “exhibit cytotoxicity”.

As for `C=C1C(=O)O[C@H]2[C@H]1CC/C(C)=C/CC[C@@]1(C)O[C@@H]21` [parthenolide, reference compound], in series [2], the “Cytotoxicity toward a panel” value is “exhibit cytotoxicity”.

As usually defined, the IC50 is the concentration needed to halve the response being measured.
